Reference: ChEMBL document CHEMBL3853293, “Part-1: Design, synthesis and biological evaluation of novel bromo-pyrimidine analogs as tyrosine kinase inhibitors” (Eur J Med Chem, 2016)

How the values were obtained:
Bcr/Abl fusion protein = Bcr/Abl fusion protein (Homo sapiens, UniProt P00519); test: Inhibition of BRC/ABL1 (unknown origin) after 40 mins by ADP-Glo assay; format: protein assay
[1] = Cytotoxicity against human L02 cells assessed as reduction in cell viability after 96 hrs by MTT assay; format: toxicity, cell-based
[2] = Cytotoxicity against human A549 cells assessed as reduction in cell viability after 96 hrs by MTT assay; settings: A549, 96 h
[3] = Cytotoxicity against human HCT116 cells assessed as reduction in cell viability after 96 hrs by MTT assay; settings: HCT-116, 96 h
[4] = Cytotoxicity against human U937 cells assessed as reduction in cell viability after 96 hrs by MTT assay; settings: U-937, 96 h
[5] = Cytotoxicity against human K562 cells assessed as reduction in cell viability after 96 hrs by MTT assay; settings: K562, 96 h

Bcr/Abl fusion protein, sequence (P00519 whole entry, the tested form may be a part): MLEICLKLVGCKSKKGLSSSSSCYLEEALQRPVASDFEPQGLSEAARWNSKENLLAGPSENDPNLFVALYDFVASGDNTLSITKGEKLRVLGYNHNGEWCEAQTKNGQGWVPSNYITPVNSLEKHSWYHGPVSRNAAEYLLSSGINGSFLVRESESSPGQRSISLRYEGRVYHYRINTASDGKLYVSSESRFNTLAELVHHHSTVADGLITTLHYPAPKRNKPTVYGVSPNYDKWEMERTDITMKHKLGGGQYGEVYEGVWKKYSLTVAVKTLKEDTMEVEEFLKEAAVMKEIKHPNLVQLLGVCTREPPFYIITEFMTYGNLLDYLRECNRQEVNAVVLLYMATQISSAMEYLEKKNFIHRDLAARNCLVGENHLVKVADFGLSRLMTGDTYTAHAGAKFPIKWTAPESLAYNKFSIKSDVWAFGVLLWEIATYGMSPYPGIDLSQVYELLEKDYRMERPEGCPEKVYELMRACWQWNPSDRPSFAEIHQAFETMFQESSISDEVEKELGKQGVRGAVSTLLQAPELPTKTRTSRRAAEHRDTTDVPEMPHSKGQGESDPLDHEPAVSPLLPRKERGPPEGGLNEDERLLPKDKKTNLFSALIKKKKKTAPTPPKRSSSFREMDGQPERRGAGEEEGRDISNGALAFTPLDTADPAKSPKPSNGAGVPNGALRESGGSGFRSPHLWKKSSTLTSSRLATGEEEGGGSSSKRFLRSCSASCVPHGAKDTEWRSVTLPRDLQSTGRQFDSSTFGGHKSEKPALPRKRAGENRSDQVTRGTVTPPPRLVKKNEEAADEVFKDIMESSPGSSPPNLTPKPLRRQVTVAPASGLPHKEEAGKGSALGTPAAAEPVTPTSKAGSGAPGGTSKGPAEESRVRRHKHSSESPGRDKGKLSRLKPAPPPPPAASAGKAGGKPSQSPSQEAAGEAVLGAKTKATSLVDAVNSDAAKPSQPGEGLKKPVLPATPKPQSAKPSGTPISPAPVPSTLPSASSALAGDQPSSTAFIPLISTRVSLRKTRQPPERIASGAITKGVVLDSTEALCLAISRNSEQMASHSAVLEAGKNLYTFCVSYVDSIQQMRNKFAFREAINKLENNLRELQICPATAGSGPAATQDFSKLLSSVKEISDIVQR
Bcr/Abl fusion protein, sequence (P11274 whole entry, further chain, the tested form may be a part): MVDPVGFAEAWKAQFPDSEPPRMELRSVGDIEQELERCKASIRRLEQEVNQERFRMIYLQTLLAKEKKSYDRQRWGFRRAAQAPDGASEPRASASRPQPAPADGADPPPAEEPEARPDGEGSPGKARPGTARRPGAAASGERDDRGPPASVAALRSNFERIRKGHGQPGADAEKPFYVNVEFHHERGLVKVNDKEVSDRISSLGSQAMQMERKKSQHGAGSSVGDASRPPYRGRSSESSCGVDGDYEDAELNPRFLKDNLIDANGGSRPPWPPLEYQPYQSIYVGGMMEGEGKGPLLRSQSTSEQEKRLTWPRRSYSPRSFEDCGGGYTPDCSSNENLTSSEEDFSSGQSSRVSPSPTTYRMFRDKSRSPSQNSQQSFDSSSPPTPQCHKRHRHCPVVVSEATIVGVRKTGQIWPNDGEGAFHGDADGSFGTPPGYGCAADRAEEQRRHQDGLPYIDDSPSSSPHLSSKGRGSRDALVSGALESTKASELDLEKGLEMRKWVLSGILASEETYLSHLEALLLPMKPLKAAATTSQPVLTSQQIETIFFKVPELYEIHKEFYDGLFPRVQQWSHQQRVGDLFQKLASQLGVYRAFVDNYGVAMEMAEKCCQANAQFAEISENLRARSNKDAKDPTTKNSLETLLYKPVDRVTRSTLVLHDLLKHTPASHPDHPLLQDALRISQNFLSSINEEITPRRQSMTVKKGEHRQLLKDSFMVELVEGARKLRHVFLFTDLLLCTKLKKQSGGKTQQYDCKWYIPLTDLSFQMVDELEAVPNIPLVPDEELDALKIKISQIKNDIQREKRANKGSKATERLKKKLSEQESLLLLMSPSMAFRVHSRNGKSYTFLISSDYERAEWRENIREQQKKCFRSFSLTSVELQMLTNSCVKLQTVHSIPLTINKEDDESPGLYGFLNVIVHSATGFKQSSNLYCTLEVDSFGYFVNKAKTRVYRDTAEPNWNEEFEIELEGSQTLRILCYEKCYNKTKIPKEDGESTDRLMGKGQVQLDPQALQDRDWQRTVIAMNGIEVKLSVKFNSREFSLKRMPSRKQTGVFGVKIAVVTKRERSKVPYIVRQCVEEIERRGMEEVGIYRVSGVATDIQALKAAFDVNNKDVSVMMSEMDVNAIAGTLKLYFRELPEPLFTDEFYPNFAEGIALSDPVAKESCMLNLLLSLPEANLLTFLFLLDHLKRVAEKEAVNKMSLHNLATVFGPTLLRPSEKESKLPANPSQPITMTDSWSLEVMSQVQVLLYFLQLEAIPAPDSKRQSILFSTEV

Row | SMILES | IC50 (Bcr/Abl fusion protein) [µM] | IC50 at 96 h [1] [µM] | IC50 [2] | IC50 [3] | IC50 [4] | IC50 [5]
1 | Cc1ccc(S(=O)(=O)N2CCN(c3nc(Cl)ncc3Br)CC2)cc1 | 58 |  |  |  |  | 
2 | O=S(=O)(C1CC1)N1CCN(c2nc(N3CCOCC3)ncc2Br)CC1 | 0.22 | > 40 | 12 µM | 8.11 µM | 12.1 µM | 9.12 µg/mL
3 | O=C(c1ccc(F)cc1)N1CCN(c2nc(Cl)ncc2Br)CC1 | 0.019 | > 40 | 7.34 µg/mL | 8.11 µM | 9.12 µg/mL | 8.82 µg/mL
4 | O=C(c1ccc(F)cc1)N1CCN(c2nc(N3CCOCC3)ncc2Br)CC1 | 0.024 | > 40 | 8.67 µM | 4.56 µg/mL | 9.89 µg/mL | 9.45 µg/mL
5 | Cc1noc(C)c1S(=O)(=O)N1CCN(c2nc(N3CCOCC3)ncc2Br)CC1 | > 500 | > 40 | 10.5 µM | 8.34 µM | 11.7 µM | 9.45 µg/mL
6 | O=S(=O)(c1ccc(-c2ccccc2)cc1)N1CCN(c2nc(N3CCOCC3)ncc2Br)CC1 | 0.32 | > 40 | 10.1 µM | 9.12 µM | 11.2 µM | 9.32 µg/mL
7 | CS(=O)(=O)N1CCN(c2nc(N3CCOCC3)ncc2Br)CC1 |  | > 40 | 9.71 µM | 8.11 µM | 11.6 µM | 12 µM
8 | O=S(=O)(c1ccc(F)cc1)N1CCN(c2nc(Cl)ncc2Br)CC1 | 122 |  |  |  |  | 
9 | O=C(c1cc(I)ccc1Cl)N1CCN(c2nc(Cl)ncc2Br)CC1 | 16.2 | > 40 | 12.2 µM | 6.51 µM | 12.2 µM | 8.67 µg/mL
10 | Cc1ccc(S(=O)(=O)N2CCN(c3nc(N4CCOCC4)ncc3Br)CC2)cc1 | 1.98 | > 40 | 9.23 µM | 7.65 µM | 10.5 µM | 10.3 µg/mL
11 | O=C(c1cc(Cl)ccc1Cl)N1CCN(c2nc(Cl)ncc2Br)CC1 | 2.28 | > 40 | 10.5 µM | 8.23 µM | 11.3 µM | 9.22 µg/mL
12 | N#Cc1ccc(S(=O)(=O)N2CCN(c3nc(N4CCOCC4)ncc3Br)CC2)cc1 | > 500 | > 40 | 12.4 µM | 8.33 µM | 12.2 µM | 10.5 µg/mL
13 | CS(=O)(=O)N1CCN(c2nc(Cl)ncc2Br)CC1 | 0.255 |  |  |  |  | 
14 | O=C(c1ccc(Cl)cc1[N+](=O)[O-])N1CCN(c2nc(Cl)ncc2Br)CC1 | 2.58 | > 40 | 12.1 µM | 7.34 µM | 14.3 µM | 10.2 µg/mL
15 | O=[N+]([O-])c1cc(C(F)(F)F)ccc1S(=O)(=O)N1CCN(c2nc(N3CCOCC3)ncc2Br)CC1 | 0.0206 | > 40 | 6.65 µg/mL | 4.02 µg/mL | 7.14 µg/mL | 9.65 µg/mL
16 | O=S(=O)(c1ccc(C(F)(F)F)cc1)N1CCN(c2nc(N3CCOCC3)ncc2Br)CC1 | 0.019 | > 40 | 6.25 µg/mL | 4.32 µg/mL | 7.54 µg/mL | 9.95 µg/mL
17 | O=C(c1c(F)cccc1F)N1CCN(c2nc(Cl)ncc2Br)CC1 | 2.65 | > 40 | 12.6 µM | 4.97 µg/mL | 12.4 µM | 10.2 µg/mL
18 | O=S(=O)(c1ccc2ccccc2c1)N1CCN(c2nc(N3CCOCC3)ncc2Br)CC1 | 0.44 | > 40 | 8.23 µg/mL | 9.56 µM | 15.1 µM | 10.3 µg/mL

Row | SMILES | IC50 (Bcr/Abl fusion protein) [µM] | IC50 at 96 h [1] [µM] | IC50 [2] | IC50 [3] | IC50 [4] | IC50 [5]
19 | COC(=O)NC(C(=O)N1CCN(c2nc(Cl)ncc2Br)CC1)C(C)C (stereo not drawn) | 0.385 |  |  |  |  | 
20 | Cc1ccc(S(=O)(=O)N2CCN(c3nc(N4CCOCC4)ncc3Br)CC2)c(C)c1 | 1.69 | > 40 | 11.2 µM | 8.56 µM | 12.8 µM | 9.09 µg/mL
21 | O=S(=O)(c1ccc(F)cc1)N1CCN(c2nc(N3CCOCC3)ncc2Br)CC1 | 4.52 | > 40 | 9.34 µM | 8.11 µM | 11.1 µM | 9.32 µg/mL
22 | O=S(=O)(c1cc(C(F)(F)F)cc(C(F)(F)F)c1)N1CCN(c2nc(Cl)ncc2Br)CC1 | 2.25 |  |  |  |  | 
23 | CC(C)(C)c1ccc(S(=O)(=O)N2CCN(c3nc(N4CCOCC4)ncc3Br)CC2)cc1 | 1.15 | > 40 | 12.4 µM | 8.67 µM | 12.8 µM | 9.09 µg/mL
24 | O=[N+]([O-])c1cc(C(F)(F)F)ccc1S(=O)(=O)N1CCN(c2nc(Cl)ncc2Br)CC1 | 0.0226 |  |  |  |  | 
25 | O=C(c1cc(Cl)c(Cl)c(Cl)n1)N1CCN(c2nc(Cl)ncc2Br)CC1 | 1.44 |  |  |  |  | 
26 | O=C(c1ccc(C(F)(F)F)cc1)N1CCN(c2nc(Cl)ncc2Br)CC1 | 0.019 | > 40 | 8.23 µg/mL | 4.92 µg/mL | 7.12 µg/mL | 10.3 µg/mL
27 | O=S(=O)(c1ccc(-c2ccccc2)cc1)N1CCN(c2nc(Cl)ncc2Br)CC1 | 0.64 |  |  |  |  | 
28 | Cc1noc(C)c1S(=O)(=O)N1CCN(c2nc(Cl)ncc2Br)CC1 | 0.56 |  |  |  |  | 
29 | O=S(=O)(c1cc(Cl)sc1Cl)N1CCN(c2nc(N3CCOCC3)ncc2Br)CC1 | > 500 | > 40 | 9.56 µM | 9.23 µM | 13.6 µM | 10.1 µg/mL
30 | O=C(c1ccc(Cl)cc1[N+](=O)[O-])N1CCN(c2nc(N3CCOCC3)ncc2Br)CC1 | > 500 | > 40 | 9.76 µM | 6.43 µM | 13.1 µM | 13.2 µM
31 | O=S(=O)(C1CC1)N1CCN(c2nc(Cl)ncc2Br)CC1 | > 500 |  |  |  |  | 
32 | O=C(c1c(F)cccc1F)N1CCN(c2nc(N3CCOCC3)ncc2Br)CC1 | 0.89 | > 40 | 7.17 µg/mL | 5.56 µM | 13.1 µM | 11.2 µg/mL
33 | O=C(c1ccc(C(F)(F)F)cc1)N1CCN(c2nc(N3CCOCC3)ncc2Br)CC1 | 0.024 | > 40 | 6.44 µg/mL | 4.45 µg/mL | 9.88 µg/mL | 9.17 µg/mL
34 | CCCS(=O)(=O)N1CCN(c2nc(Cl)ncc2Br)CC1 | > 500 |  |  |  |  | 
35 | Cc1nc(Nc2ncc(C(=O)Nc3c(C)cccc3Cl)s2)cc(N2CCN(CCO)CC2)n1 [DASATINIB] |  | > 40 | 8.37 µM | 5.23 µM | 10.2 µM | 12 µM
